Measured values published in patent US4942163A, “1(2H)-isoquinolinones and 1-isoquinolineamines as cancer chemotherapeutic agents” (E. I. Du Pont de Nemours and Company, priority 1989, dated 1990).
≈ marks a conversion by molar mass, not a printed value.

Columns and labels:
[1] = tested on: LOX human amelanotic melanoma; assay: LOX human amelanotic melanoma xenograft test in athymic nude mice; format: in vivo; settings: for % T/C (median survival time vs vehicle control): i.p. every fourth day, three injections
Text: The LOX human amelanotic melanoma tumor line was obtained from Dr. Oystein Fodstad, Department of Biochemistry, Norwegian Radium Hospital, Oslo, Norway. The line is maintained by serial passage in athymic NCR-NU mice. On day 0, athymic nude mice, all of one sex weighing a minimum of 18 g for males and 17 g for females, are inoculated intraperitoneally with 1×10^6 LOX melanoma cells harvested from the ascites of athymic mice. The mice are randomized into groups of six each and the test compounds and vehicle control are administered intraperitoneally every fourth day beginning day 1 for a total of three injections. Animals are evaluated for toxicity on day 10. A decrease in body weight ≥20% is considered an indication of toxicity. The acceptable control median survival time is 17-24 days. Results are expressed as a percentage of the median survival time of the vehicle-treated control group according to the formula: [formula]
The NCI criteria for activity are used. A compound is considered to have moderate activity against LOX melanoma if it has a % T/C ≥140%, and it is considered to have good activity if it has a % T/C ≥200%.

L1210 murine leukemia = L1210 murine leukemia test (survival of tumor-bearing mice); format: in vivo, mouse; settings: i.p. once daily for nine days from day 1
Method: The L1210 tumor line originated in 1948 as a lymphocytic leukemia in a female DBA/2 mouse after the skin was treated with 0.2% 20-methylcholanthrene in ethyl ether. The tumor line is maintained by serial passage in female DBA/2 mice. On day 0, female CDF1 mice weighing 18-22 g are inoculated with 1×10^5 L1210 leukemia cells harvested from the ascites of DBA/2 mice. The mice are randomized into groups of six each and the test compounds and vehicle control are administered intraperitoneally once daily for nine consecutive days beginning on day 1. A ≥20% decrease in body weight on day 5 is considered an indication of toxicity. The acceptable control mean survival time is 8-11 days. Results are expressed as a percentage of the mean survival time of the vehicle-treated control group according to the formula: [formula] Mice which survive for 30 days are considered cured and are not included in the calculation of the mean survival time. The NCI criteria for activity are used. A compound is considered to have moderate activity against L1210 leukemia if it has a % T/C ≥125%, and it is considered to have good activity if it has a % T/C ≥150%.

P388 murine leukemia = P388 murine leukemia test (survival of tumor-bearing mice); format: in vivo, mouse; settings: i.p. once daily for nine days from day 1
Method: The P388 tumor line originated in 1955 as a lymphocytic leukemia in a female DBA/2 mouse after the skin was painted with 3-methylcholanthrene. The tumor line is maintained by serial passage in female DBA/2 mice. On day 0, female CDF1 mice weighing 18-22 g are inoculated intraperitoneally with 1×10^6 P388 leukemia cells harvested from the ascites of DBA/2 mice. The mice are randomized into groups of six each and the test compounds and vehicle control are administered intraperitoneally once daily for nine consecutive days beginning day 1. A decrease in body weight on day 5 that is ≥20% is considered an indication of toxicity. The acceptable control mean survival time is 9-14 days. Results are expressed as a percentage of the mean survival time of the vehicle-treated control group according to the formula: [formula] Mice which survive for 30 days are considered cured and are not included in the calculation of the mean survival time. The NCI criteria for activity are used. A compound is considered to have moderate activity against P388 leukemia if it has a % T/C ≥125%, and it is considered to have good activity if it has a % T/C ≥150%.

[2] = tested on: RPMI-7272 human melanoma cells; assay: In vitro RPMI-7272 human melanoma cell growth inhibition; format: cell-based; settings: RPMI-7272 melanoma, inhibition of cell doublings by 50%, 72 h, read-out: ID50 (the source's name)
Method: The compounds of this invention were also tested for their ability to inhibit the growth of human melanoma RPMI-7272 cells in vitro. Human melanoma RPMI-7272 cells (Quinn et al. [J. Natl. Cancer Inst. 59, 301-305 (1977)]) were propagated in RPMI-1640 medium supplemented with 10 mM Tricine (pH 7.8), 10 mM HEPES (pH 7.3), 0.075% sodium bicarbonate, and 10% (vol/vol) heat-inactivated (56° C., 30 minutes) fetal bovine serum in a 95% air:5% CO2 humidified atmosphere. Cells were seeded at 3×10^5 per 35 mm plate to initiate growth inhibition studies. Cultures to receive growth medium only (control cultures) were set up in quadruplicate; cultures to receive varying concentrations of compounds were set up at one dish per dose of compound. Twenty-four hours post-seeding, duplicate control cell cultures were trypsinized and cells were counted using a Coulter Counter (day 1 control counts). At this time, varying concentrations of test compounds, from 100 to 0.00001 μg/mL were added to cultures and growth medium only was added to control cultures. Seventy-two hours after the addition of compound, cells were trypsinized and counted. The numbers of cell population doublings (day 4) in the presence or absence of compound were calculated. The ID50 represents the dose of compound (in μg/mL) required to inhibit the number of cell doublings by 50%. A compound is considered to have in vitro activity against RPMI-7272 melanoma if it has an ID50 ≤1 μg/mL. The number of population doublings of control cultures during 72 hours was between 3 and 4. […] Dilutions to 1 mg/mL in complete growth medium were made, followed by stock preparations of 100 and 30 μg/mL in complete growth medium. Serial ten-fold dilutions in complete medium were formulated from the 100 and 30 μ g/mL stocks, respectively, and added to cultures.

B16 murine melanoma = B16 murine melanoma test (survival of tumor-bearing mice); format: in vivo, mouse; settings: i.p. once daily for nine days from day 1
Method: The B16 tumor line arose spontaneously in 1954 on the skin at the base of the ear of a C57BL mouse. The tumor line is maintained by serial passage in female C57BL mice. On day 0, female B6C3F1 mice are inoculated intraperitoneally with 0.5 mL of a 10% tumor brei. This brei is prepared by homogenizing fresh B16 tumors, grown subcutaneously in C57BL mice, in cold physiological saline. Mice are randomized in groups of ten each, with 20 animals being in the control group. The test compounds and vehicle control are administered intraperitoneally once daily for nine consecutive days beginning on day 1. A ≥20% decrease in body weight on day 5 is considered an indication of toxicity. The acceptable mean control survival time is 14-22 days. Results are expressed as a percentage of the mean survival time of the vehicle-treated control group according to the formula: [formula] Mice which survive 90 days are considered cured and are not included in the calculation of the mean survival time. The NCI criteria for activity are used. A compound is considered to have moderate activity against B16 melanoma if it has a % T/C ≥125%, and it is considered to have good activity if it has a % T/C ≥150%.

Row | Compound | IC50 [2] | other results
1 | O=c1[nH]c(-c2cccc3ccccc23)cc2ccccc12 [Example 1, 3-(1-Naphthalenyl)-1(2H)-isoquinolinone] | – | Cures (number of survivors/total at 60 days) ([1]; dose 400 mg/kg): 1/6; % T/C (median survival time vs vehicle control) ([1]; dose 400 mg/kg): 168%; % T/C (mean survival time vs vehicle control) (L1210 murine leukemia; dose 100 mg/kg): 148%; % T/C (mean survival time vs vehicle control) (P388 murine leukemia; dose 200 mg/kg): 161%
2 | O=c1[nH]c(-c2cccc3ccccc23)cc2ccc(Cl)cc12 [Example 2, 7-chloro-3-(1-naphthalenyl)-1(2H)-isoquinolinone] | 0.005 µg/mL (≈ 0.0164 µM) | % T/C (mean survival time vs vehicle control) (P388 murine leukemia; dose 100 mg/kg): 138%
3 | Cc1ccc2cc(-c3cccc4ccccc34)[nH]c(=O)c2c1 [Example 3, 7-Methyl-3-(1-naphthalenyl)-1(2H)-isoquinolinone] | 0.0072 µg/mL (≈ 0.0252 µM) | Cures (number of survivors/total at 60 days) ([1]; dose 240 mg/kg): 2/6; % T/C (median survival time vs vehicle control) ([1]; dose 240 mg/kg): 271%; % T/C (mean survival time vs vehicle control) (L1210 murine leukemia; dose 200 mg/kg): 133%; % T/C (mean survival time vs vehicle control) (B16 murine melanoma; dose 100 mg/kg): 149%; % T/C (mean survival time vs vehicle control) (P388 murine leukemia; dose 100 mg/kg): 152%
4 | CN(C)c1ccc2cc(-c3cccc4ccccc34)[nH]c(=O)c2c1.Cl [Example 4, 7-(Dimethylamino)-3-(1-naphthalenyl)-1(2H)-isoquinolinone hydrochloride] | 0.001 µg/mL | % T/C (mean survival time vs vehicle control) (L1210 murine leukemia; dose 6 mg/kg): 156%
5 | Nc1nc(-c2cccc3ccccc23)cc2cc(Cl)ccc12 [Example 19] | 0.055 µg/mL (≈ 0.18 µM) | –
6 | Cc1ccc2c(N)nc(-c3cccc4ccccc34)cc2c1 [Example 20, 6-Methyl-3-(1-naphthalenyl)-1-isoquinolineamine] | 0.00077 µg/mL (≈ 0.00271 µM) | % T/C (mean survival time vs vehicle control) (B16 murine melanoma; dose 6 mg/kg): 130%
7 | Nc1nc(-c2cccc3ccccc23)cc2ccc(Cl)cc12 [Example 21, 7-Chloro-3-(1-naphthalenyl)-1-isoquinolineamine] | 0.0094 µg/mL (≈ 0.0308 µM) | % T/C (mean survival time vs vehicle control) (B16 murine melanoma; dose 100 mg/kg): 138%
8 | Cc1ccc2cc(-c3cccc4ccccc34)nc(N3CCN(C)CC3)c2c1 [Example 31, 7-Methyl-1-(4-methyl-1-piperazinyl)-3-(1-naphthalenyl)-isoquinoline] | – | % T/C (mean survival time vs vehicle control) (B16 murine melanoma; dose 6 mg/kg): 133%
9 | Cc1ccc2cc(-c3cccc4ccccc34)nc(N(C)CCN(C)C)c2c1 [Example 40, N,N,N'-Trimethyl-N'-(7-methyl-3-(1-naphthalenyl)-1-isoquinolinyl)-1,2-ethanediamine] | – | % T/C (mean survival time vs vehicle control) (B16 murine melanoma; dose 0.75 mg/kg): 135%

Now from value to compound, other results behind:

Row | IC50 [2] | Compound | other results
10 | 0.055 µg/mL | C[N+](C)(C)c1ccc2cc(-c3cccc4ccccc34)[nH]c(=O)c2c1 [Example 5] | –
11 | 0.29 µg/mL (≈ 1.02 µM) | Cc1cccc2c(=O)[nH]c(-c3cccc4ccccc34)cc12 [Example 7] | –
12 | 0.0016 µg/mL (≈ 0.00561 µM) | Cc1ccc2c(=O)[nH]c(-c3cccc4ccccc34)cc2c1 [Example 9] | –
13 | 0.53 µg/mL (≈ 1.86 µM) | Cc1cccc2cc(-c3cccc4ccccc34)[nH]c(=O)c12 [Example 15] | –
14 | 0.22 µg/mL (≈ 0.814 µM) | Nc1nc(-c2cccc3ccccc23)cc2ccccc12 [Example 16] | –
15 | 0.95 µg/mL (≈ 3.34 µM) | Cc1cccc2c(N)nc(-c3cccc4ccccc34)cc12 [Example 18] | –
16 | 0.0016 µg/mL (≈ 0.00563 µM) | Cc1ccc2cc(-c3cccc4ccccc34)nc(N)c2c1 [Example 22] | –
17 | 0.07 µg/mL (≈ 0.23 µM) | Nc1nc(-c2cccc3ccccc23)cc2cccc(Cl)c12 [Example 23] | –
18 | 0.05 µg/mL (≈ 0.176 µM) | Cc1cccc2cc(-c3cccc4ccccc34)nc(N)c12 [Example 24] | –
